Results reported in the supplement of paper PMC13380429.

Assays:
[1] = test system: A549-ACE2 infected with SARS-CoV-2; assay: cell count relative to DMSO; higher = less toxic; settings: 24 h
[2] = test system: A549-ACE2; assay: drug-induced phospholipidosis relative to tamoxifen; higher = more phospholipidosis
[3] = test system: A549-ACE2 infected with SARS-CoV-2; assay: SARS-CoV-2 infection rate relative to DMSO; higher = more infection; settings: 24 h
[4] = test system: Vero E6; assay: drug sensitivity score (DSS) for viability; higher = more toxic; extreme values may be limits of the assay; settings: 72 h
[5] = test system: U2OS; assay: as above; settings: 72 h
[6] = test system: Calu-3; assay: as above; settings: 72 h
[7] = test system: Caco-2; assay: as above; settings: 72 h
[8] = test system: HepG2; assay: as above; settings: 72 h
[9] = test system: Vero E6; assay: cell viability relative to DMSO; higher = less toxic; settings: 72 h
[10] = test system: U2OS; assay: as above; settings: 72 h
[11] = test system: Calu-3; assay: as above; settings: 72 h
[12] = test system: Caco-2; assay: as above; settings: 72 h
[13] = test system: HepG2; assay: as above; settings: 72 h
[14] = test system: Vero E6; assay: relative viability EC50 (midpoint between 100% and the lowest measured viability); higher = less toxic; settings: 72 h
[15] = test system: U2OS; assay: as above; settings: 72 h
[16] = test system: Calu-3; assay: as above; settings: 72 h
[17] = test system: HepG2; assay: as above; settings: 72 h
[18] = test system: A549-ACE2; assay: phospholipidosis EC50; higher = less potent phospholipidosis inducer
[19] = test system: A549-ACE2 infected with SARS-CoV-2; assay: morphology score (similarity to uninfected cells); higher = more like uninfected cells; settings: 24 h
[20] = test system: Caco-2; assay: relative viability EC50 (midpoint between 100% and the lowest measured viability); higher = less toxic; settings: 72 h

CCN(CC)CCO[C@H]1CC[C@@]2(C)C(=CC[C@@H]3[C@@H]2CC[C@]2(C)C(=O)CC[C@@H]32)C1
Settings | SARS-CoV-2 infection rate [%] | cell count [%] | cell viability [%] | morphology score | phospholipidosis EC50 [nM]
[1], 0.1 µM | – | 96 | – | – | –
[1], 0.3 µM | – | 105 | – | – | –
[1], 1 µM | – | 114 | – | – | –
[1], 3 µM | – | 117 | – | – | –
[3], 0.1 µM | 108 | – | – | – | –
[3], 0.3 µM | 93 | – | – | – | –
[3], 1 µM | 81 | – | – | – | –
[3], 3 µM | 29 | – | – | – | –
[9], 1 nM | – | – | 93.9 | – | –
[9], 10 nM | – | – | 104 | – | –
[9], 100 nM | – | – | 89.3 | – | –
[9], 1000 nM | – | – | 92.3 | – | –
[9], 10000 nM | – | – | 24.6 | – | –
[10], 1 nM | – | – | 99.4 | – | –
[10], 10 nM | – | – | 98.4 | – | –
[10], 100 nM | – | – | 99.7 | – | –
[10], 1000 nM | – | – | 84.9 | – | –
[10], 10000 nM | – | – | 78.6 | – | –
[11], 1 nM | – | – | 98 | – | –
[11], 10 nM | – | – | 103 | – | –
[11], 100 nM | – | – | 107 | – | –
[11], 1000 nM | – | – | 79.4 | – | –
[11], 10000 nM | – | – | 18.5 | – | –
[12], 1 nM | – | – | 92 | – | –
[12], 10 nM | – | – | 92.6 | – | –
[12], 100 nM | – | – | 97.2 | – | –
[12], 1000 nM | – | – | 88.4 | – | –
[12], 10000 nM | – | – | 51.2 | – | –
[13], 1 nM | – | – | 101 | – | –
[13], 10 nM | – | – | 93.8 | – | –
[13], 100 nM | – | – | 85.3 | – | –
[13], 1000 nM | – | – | 84.5 | – | –
[13], 10000 nM | – | – | 33.5 | – | –
[18], 24 h | – | – | – | – | 935
[18], 48 h | – | – | – | – | 1040
[18], 72 h | – | – | – | – | 2250
[19], 0.1 µM | – | – | – | -0.31 | –
[19], 0.3 µM | – | – | – | 0.19 | –
[19], 1 µM | – | – | – | 0.41 | –
[19], 3 µM | – | – | – | 0.69 | –

drug-induced phospholipidosis [%], [2]
Settings | 0.3 µM | 0.833333 µM | 3.33333 µM | 6.66667 µM | 10 µM | 30 µM
24 h | 6.72 | 34.6 | 112 | 114 | 104 | 86.8
48 h | 7.14 | 19.8 | 111 | 116 | 106 | 90
72 h | 6.02 | 13.4 | 95.4 | 125 | 115 | –

Settings | drug sensitivity score | relative viability EC50
[4] | 5.4 | –
[5] | 2.2 | –
[6] | 7.7 | –
[7] | 4.4 | –
[8] | 5.8 | –
[14] | – | 2320 nM
[15] | – | > 10 µM
[16] | – | 1540 nM
[17] | – | 1720 nM

CN(C(=O)Cc1ccc(Cl)c(Cl)c1)[C@H](CN1CCCC1)c1ccccc1
Settings | SARS-CoV-2 infection rate [%] | cell count [%] | cell viability [%] | morphology score | phospholipidosis EC50 [nM]
[1], 0.3 µM | – | 96 | – | – | –
[1], 3 µM | – | 118 | – | – | –
[1], 10 µM | – | 121 | – | – | –
[1], 30 µM | – | 92 | – | – | –
[3], 0.3 µM | 97 | – | – | – | –
[3], 3 µM | 21 | – | – | – | –
[3], 10 µM | 17 | – | – | – | –
[3], 30 µM | 36 | – | – | – | –
[9], 1 nM | – | – | 104 | – | –
[9], 10 nM | – | – | 101 | – | –
[9], 100 nM | – | – | 107 | – | –
[9], 1000 nM | – | – | 102 | – | –
[9], 10000 nM | – | – | 88.1 | – | –
[10], 1 nM | – | – | 96.9 | – | –
[10], 10 nM | – | – | 99.7 | – | –
[10], 100 nM | – | – | 101 | – | –
[10], 1000 nM | – | – | 106 | – | –
[10], 10000 nM | – | – | 89.9 | – | –
[11], 1 nM | – | – | 96.1 | – | –
[11], 10 nM | – | – | 100 | – | –
[11], 100 nM | – | – | 90.9 | – | –
[11], 1000 nM | – | – | 97.1 | – | –
[11], 10000 nM | – | – | 28.9 | – | –
[12], 1 nM | – | – | 96.7 | – | –
[12], 10 nM | – | – | 103 | – | –
[12], 100 nM | – | – | 103 | – | –
[12], 1000 nM | – | – | 103 | – | –
[12], 10000 nM | – | – | 76 | – | –
[13], 1 nM | – | – | 98.1 | – | –
[13], 10 nM | – | – | 105 | – | –
[13], 100 nM | – | – | 106 | – | –
[13], 1000 nM | – | – | 99.4 | – | –
[13], 10000 nM | – | – | 85.3 | – | –
[18], 24 h | – | – | – | – | 3630
[18], 48 h | – | – | – | – | 5180
[18], 72 h | – | – | – | – | 8350
[19], 0.3 µM | – | – | – | -0.06 | –
[19], 3 µM | – | – | – | 0.89 | –
[19], 10 µM | – | – | – | 0.84 | –
[19], 30 µM | – | – | – | 0.1 | –

drug-induced phospholipidosis [%], [2]
Settings | 0.3 µM | 0.833333 µM | 3.33333 µM | 6.66667 µM | 10 µM | 30 µM
24 h | 0.7 | 4.92 | 51.2 | 90.6 | 95.8 | 112
48 h | 4.43 | 3.22 | 36.7 | 77.7 | 97.8 | –
72 h | 3.91 | 2.85 | 31.5 | 65.6 | 90.5 | –

Settings | drug sensitivity score | relative viability EC50
[4] | 0 | –
[5] | 0 | –
[6] | 4.3 | –
[7] | 0.7 | –
[8] | 0.3 | –
[14] | – | > 10000 nM
[15] | – | > 10 µM
[16] | – | 2850 nM
[17] | – | > 10000 nM
[20] | – | > 10 µM
